“Also recorded” adds a separate entry of the source.
Key:
Type in all cases: physicochemical
[1] = Dynamic Vapor Sorption (DVS) sorption isotherms, hygroscopic behaviour; details: for Hygroscopicity: DVS classification; for Δm (0-80%), moisture absorbed at 80% RH / Δm (0-90%), maximum water uptake: DVS, 25.0 ±1.0° C.; for Δm (0-90%), maximum water uptake: up to 90% RH; for Phase change during DVS experiment: RH cycled twice 0% to 90% to 0%; for Hysteresis: between sorption and desorption curves
Procedure: The methodology for this can be as follows. The mass of the solids is monitored as the relative humidity (RH) was deliberately changed. The RH is cycled twice from 0% to 90% to 0% in 10% steps. The temperature during measurement is kept constantly at (25.0 ±1.0° C.) Each step is held until mass stability was achieved. A camera inside the instrument captured an image at the conclusion of each stage, allowing for the observation of any visual changes in the solid form during the analysis.

[2] = Temperature stress tests with form I, form II and form VI, PXRD; details: 6 h at 150° C. (closed vial)
[3] = Thermogravimetric Analysis (TGA); details: 20° C./min
Procedure: The methodology for this can be as follows. Solid compounds (˜5 mg) are placed in an aluminium pan and sealed. The instrument used for the analysis is a TA Instruments TGA 550. The same sample lots from DSC testing are used for TGA testing. Processing is completed using TRIOS software.

[4] = Chemical stability of solid state forms under temperature/humidity stress, related substances by HPLC at 252 nm; parameters: Impurity I / Impurity A / Impurity B / Impurity C / Impurity D / Impurity E / Impurity F / Impurity G / Impurity H: unit not given here
Source text: To do so, control samples are stored refrigerated in the presence of desiccant for the duration of the study and measured simultaneously with stressed samples by HPLC at a wavelength of 252 nm.

[5] = Polymorphic stability of form III and form IV under stress storage, PXRD; details: 21 days;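 further: open storage at 90 °C with 3% RH or 78% RH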
Procedure: A Bruker D2 Phaser X-Ray Diffractometer (XRD, EQ-SSRD-XRD-01) can be used for characterizing the samples. Raw results are evaluated using DIFFRAC.EVA (Bruker, V5.0) software. The Kα2 contribution was stripped, and a peak search was performed using peak search parameters (width 0.302 and threshold 1.0).
A test sample (approximately 0.3 g) is representatively subsampled into an agate-type mortar and pestle. Sample is ground for approximately one minute to achieve a fine homogenous powder. Sample is then transferred into a stainless-steel sample holder fitted with a zero-diffraction plate (ZDP). The sample holder is then levelled off with a glass slide to create a flat sample surface level with the sample holder.

[6] = Control 1, stored refrigerated with desiccant
[7] = Control 2, stored refrigerated with desiccant
[8] = Control 3, stored refrigerated with desiccant

C=CC(=O)NC1CCN(c2ncc3ncnc(Nc4ccc(Oc5ccc6c(c5)ncn6C)c(C)c4)c3n2)CC1 [Form I, N-{1-[8-({3-methyl-4-[(1-methyl-1H-1,3-benzodiazol-5-yl)oxy]phenyl}amino)-[1,3]diazino[5,4-d]pyrimidin-2-yl]piperidin-4-yl}prop-2-enamide]
Hygroscopicity [1]: hygroscopic
Hygroscopicity ([1]; listed as form I): hygroscopic
Δm (0-80%), moisture absorbed at 80% RH [1]: 5.4 wt %
Δm (0-80%), moisture absorbed at 80% RH ([1]; listed as form I): 5.4 wt %
Δm (0-90%), maximum water uptake [1]: 7.3 wt %
Δm (0-90%), maximum water uptake ([1]; listed as form I): 7.3 wt %
Phase change during DVS experiment [1]: no irreversible phase changes
Hysteresis [1]: yes
Hysteresis ([1]; listed as form I): significant hysteresis
PXRD of stressed sample [2]: Form I
PXRD of stressed sample ([2]; listed as form I): remained unchanged; also recorded: polymorphically stable
TGA change in mass ([3]; Decomposition): 47.883%
TGA end ([3]; Decomposition): 463.12 °C
TGA onset ([3]; Decomposition): 419.14 °C

C=CC(=O)NC1CCN(c2ncc3ncnc(Nc4ccc(Oc5ccc6c(c5)ncn6C)c(C)c4)c3n2)CC1 [Form IV, N-{1-[8-({3-methyl-4-[(1-methyl-1H-1,3-benzodiazol-5-yl)oxy]phenyl}amino)-[1,3]diazino[5,4-d]pyrimidin-2-yl]piperidin-4-yl}prop-2-enamide]
Change in visual appearance during the humidity cycles ([1]; DVS camera images): No change in the visual appearance
Hygroscopicity [1]: slightly hygroscopic
Hygroscopicity ([1]; listed as form IV): slightly hygroscopic
Δm (0-80%), moisture absorbed at 80% RH [1]: 0.4 wt %
Δm (0-80%), moisture absorbed at 80% RH ([1]; listed as form IV): 0.4 wt %
Δm (0-90%), maximum water uptake [1]: 0.5 wt %
Δm (0-90%), maximum water uptake ([1]; listed as form IV): 0.5 wt %
Phase change during DVS experiment [1]: no indication of irreversible phase conversion or hydrate formation; also recorded: no irreversible phase changes
Hysteresis [1]: no
Hysteresis ([1]; listed as form IV): lack of hysteresis
TGA change in mass ([3]; Decomposition): 49.938%
TGA onset ([3]; Decomposition): 420.14 °C
TGA change in mass ([3]; Small mass loss event): 1.285%
TGA end ([3]; Small mass loss event): 243.82 °C
TGA onset ([3]; Small mass loss event): 224.60 °C
TGA change in mass ([3]; Small mass loss event, listed as form IV): around 1%
Color change after stressing ([4]; 60-90° C., 3-79% RH, up to 21 days): No color changes
Impurity A ([4]; 60° C./75% RH, 17 days): 0.111
Impurity B ([4]; 60° C./75% RH, 17 days): 0.008
Impurity C ([4]; 60° C./75% RH, 17 days): 0.066
Impurity D ([4]; 60° C./75% RH, 17 days): 0.014
Impurity E ([4]; 60° C./75% RH, 17 days): 0.074
Impurity F ([4]; 60° C./75% RH, 17 days): 0.012
Impurity G ([4]; 60° C./75% RH, 17 days): 0.037
Impurity H ([4]; 60° C./75% RH, 17 days): 0.132
Impurity I ([4]; 60° C./75% RH, 17 days): 0.012
Impurity A ([4]; 70° C./62% RH, 17 days): 0.113
Impurity B ([4]; 70° C./62% RH, 17 days): 0.010
Impurity C ([4]; 70° C./62% RH, 17 days): 0.065
Impurity D ([4]; 70° C./62% RH, 17 days): 0.022
Impurity E ([4]; 70° C./62% RH, 17 days): 0.069
Impurity F ([4]; 70° C./62% RH, 17 days): 0.013
Impurity G ([4]; 70° C./62% RH, 17 days): 0.038
Impurity H ([4]; 70° C./62% RH, 17 days): 0.133
Impurity I ([4]; 70° C./62% RH, 17 days): 0.012
Impurity A ([4]; 75° C./41% RH, 17 days): 0.113
Impurity B ([4]; 75° C./41% RH, 17 days): 0.010
Impurity C ([4]; 75° C./41% RH, 17 days): 0.072
Impurity D ([4]; 75° C./41% RH, 17 days): 0.015
Impurity E ([4]; 75° C./41% RH, 17 days): 0.078
Impurity F ([4]; 75° C./41% RH, 17 days): 0
Impurity G ([4]; 75° C./41% RH, 17 days): 0.027
Impurity H ([4]; 75° C./41% RH, 17 days): 0.129
Impurity I ([4]; 75° C./41% RH, 17 days): 0.010
Impurity A ([4]; 75° C./79% RH, 10 days): 0.103
Impurity B ([4]; 75° C./79% RH, 10 days): 0.010
Impurity C ([4]; 75° C./79% RH, 10 days): 0.065
Impurity D ([4]; 75° C./79% RH, 10 days): 0.017
Impurity E ([4]; 75° C./79% RH, 10 days): 0.073
Impurity F ([4]; 75° C./79% RH, 10 days): 0.016
Impurity G ([4]; 75° C./79% RH, 10 days): 0.038
Impurity H ([4]; 75° C./79% RH, 10 days): 0.130
Impurity I ([4]; 75° C./79% RH, 10 days): 0.012
Impurity A ([4]; 80° C./11% RH, 17 days): 0.109
Impurity B ([4]; 80° C./11% RH, 17 days): 0.009
Impurity C ([4]; 80° C./11% RH, 17 days): 0.073
Impurity D ([4]; 80° C./11% RH, 17 days): 0.013
Impurity E ([4]; 80° C./11% RH, 17 days): 0.086
Impurity F ([4]; 80° C./11% RH, 17 days): 0
Impurity G ([4]; 80° C./11% RH, 17 days): 0.033
Impurity H ([4]; 80° C./11% RH, 17 days): 0.126
Impurity I ([4]; 80° C./11% RH, 17 days): 0.011
Impurity A ([4]; 80° C./61% RH, 10 days): 0.111
Impurity B ([4]; 80° C./61% RH, 10 days): 0.008
Impurity C ([4]; 80° C./61% RH, 10 days): 0.065
Impurity D ([4]; 80° C./61% RH, 10 days): 0.021
Impurity E ([4]; 80° C./61% RH, 10 days): 0.070
Impurity F ([4]; 80° C./61% RH, 10 days): 0.015
Impurity G ([4]; 80° C./61% RH, 10 days): 0.039
Impurity H ([4]; 80° C./61% RH, 10 days): 0.131
Impurity I ([4]; 80° C./61% RH, 10 days): 0.011
Impurity A ([4]; 90° C./3% RH, 17 days): 0.104
Impurity B ([4]; 90° C./3% RH, 17 days): 0.011
Impurity C ([4]; 90° C./3% RH, 17 days): 0.070
Impurity D ([4]; 90° C./3% RH, 17 days): 0.018
Impurity E ([4]; 90° C./3% RH, 17 days): 0.087
Impurity F ([4]; 90° C./3% RH, 17 days): 0.008
Impurity G ([4]; 90° C./3% RH, 17 days): 0.050
Impurity H ([4]; 90° C./3% RH, 17 days): 0.125
Impurity I ([4]; 90° C./3% RH, 17 days): 0.011
Impurity A ([4]; 90° C./41% RH, 10 days): 0.112
Impurity B ([4]; 90° C./41% RH, 10 days): 0.010
Impurity C ([4]; 90° C./41% RH, 10 days): 0.065
Impurity D ([4]; 90° C./41% RH, 10 days): 0.021
Impurity E ([4]; 90° C./41% RH, 10 days): 0.076
Impurity F ([4]; 90° C./41% RH, 10 days): 0.011
Impurity G ([4]; 90° C./41% RH, 10 days): 0.044
Impurity H ([4]; 90° C./41% RH, 10 days): 0.127
Impurity I ([4]; 90° C./41% RH, 10 days): 0.012
Impurity A ([4]; 90° C./78% RH, 17 days): 0.098
Impurity B ([4]; 90° C./78% RH, 17 days): 0.011
Impurity C ([4]; 90° C./78% RH, 17 days): 0.068
Impurity D ([4]; 90° C./78% RH, 17 days): 0.015
Impurity E ([4]; 90° C./78% RH, 17 days): 0.080
Impurity F ([4]; 90° C./78% RH, 17 days): 0.014
Impurity G ([4]; 90° C./78% RH, 17 days): 0.043
Impurity H ([4]; 90° C./78% RH, 17 days): 0.125
Impurity I ([4]; 90° C./78% RH, 17 days): 0.010
Impurity A [4, 6]: 0.102
Impurity B [4, 6]: 0.009
Impurity C [4, 6]: 0.064
Impurity D [4, 6]: 0.011
Impurity E [4, 6]: 0.074
Impurity F [4, 6]: 0.015
Impurity G [4, 6]: 0.037
Impurity H [4, 6]: 0.129
Impurity I [4, 6]: 0.012
Impurity A [4, 7]: 0.091
Impurity B [4, 7]: 0.009
Impurity C [4, 7]: 0.064
Impurity D [4, 7]: 0.012
Impurity E [4, 7]: 0.070
Impurity F [4, 7]: 0.013
Impurity G [4, 7]: 0.032
Impurity H [4, 7]: 0.130
Impurity I [4, 7]: 0.012
Impurity A [4, 8]: 0.114
Impurity B [4, 8]: 0.009
Impurity C [4, 8]: 0.070
Impurity D [4, 8]: 0.013
Impurity E [4, 8]: 0.071
Impurity F [4, 8]: 0
Impurity G [4, 8]: 0.023
Impurity H [4, 8]: 0.129
Impurity I [4, 8]: 0.012
Increase in related substances ([4]; accelerated stress conditions, up to 21 days at 90° C./78% RH): no significant increase in any related substance
Chemical stability in the solid state ([4]; up to 21 days at 90° C./78% RH): chemically very stable
Polymorphic stability by PXRD ([5]; open storage 90° C./3% RH): stable and conformed to form IV reference standard; also recorded: neither form underwent phase changes
Polymorphic stability by PXRD ([5]; open storage 90° C./78% RH): stable and conformed to form IV reference standard; also recorded: neither form underwent phase changes

— US20240279230A1, “CRYSTALLINE FORMS OF A HER2 INHIBITOR” (Boehringer Ingelheim International GmbH, priority 2022, published 2024)
